Data from US20190231755A1, “METHOD FOR PRODUCING SOLID DISPERSION COMPRISING RAPAMYCIN DERIVATIVE” (NIPPON KAYAKU KABUSHIKI KAISHA, priority 2016, published 2019).

Tests used:
Format in all cases: physicochemical
[1] = Stability test of everolimus with hypromellose in an ethanol solution (Reference Example 3); conditions: 10 mg everolimus with 150 mg hypromellose and 15 mg anhydrous lactose in 10 mL ethanol, 25° C.; immediately after the production (FIG. 4)
Protocol: (§1) It is to be noted that, in the analysis using liquid chromatography (HPLC) in the present test examples, the measurement was carried out under the following conditions. • Measurement column: Zorbax Eclipse XDB-C18, Rapid resolution HT, 100 mm×4.6 mm, 1.8 μm • Detector: ultraviolet absorption spectrophotometer (measurement wavelength: 278 nm) • Column temperature: 45° C. • Mobile phase A: 0.1% formic acid; mobile phase B: methanol/acetonitrile=50/50
The stability test of everolimus comprising a water-soluble polymeric carrier in an ethanol solution was carried out. 10 mL of ethanol was added to 150 mg of hypromellose (TC-5 E Type, manufactured by Shin-Etsu Chemical Co., Ltd.), and the obtained mixture was then stirred. To this mixture, 10 mg of everolimus was added, followed by stirring, and thereafter, 15 mg of anhydrous lactose was added to the reaction mixture, and the obtained mixture was further stirred. The thus prepared mixture was stored at 25° C.
The remaining amount of everolimus immediately after initiation of the storage test, and also 0.75 hours and 2 hours after initiation of the storage test was measured by high performance liquid chromatography (HPLC), and the peak area ratio of everolimus at each time point was then calculated.

[2] = Stability test of everolimus with hypromellose in ethanol:acetone (=9:1) (Reference Example 2); conditions: 10 mg everolimus with 150 mg hypromellose in 10 mL ethanol:acetone (=9:1), 25° C., up to 6 hours (FIG. 3)
Protocol: as §1
The stability test of everolimus comprising a water-soluble polymeric carrier in a mixed solution of ethanol and acetone (=9:1) was carried out. 10 mL of the mixed solution of ethanol and acetone (=9:1) was added to 150 mg of hypromellose (TC-5 E Type, manufactured by Shin-Etsu Chemical Co., Ltd.), and the obtained mixture was then stirred. To this mixture, 10 mg of everolimus was added, and the thus prepared mixture was then stored at 25° C.
(§2) The remaining amount of everolimus immediately after initiation of the storage test, and also 1 hour, 3 hours and 6 hours after initiation of the storage test was measured by high performance liquid chromatography (HPLC), and the peak area ratio of everolimus at each time point was then calculated.

[3] = Stability test of everolimus in various mixed solvents (Reference Example 1); conditions: 1 mg/mL everolimus in ethanol/acetone mixed solvents, 25° C., up to 24 hours; when the ratio of ethanol is increased (FIG. 2)
Protocol: as §1
The stability test of everolimus in various mixed solvents was carried out. Various mixed solvents were each added to everolimus, and the prepared solutions each containing 1 mg/mL everolimus were then stored at 25° C.
as §2, with “3 hours, 6” for “3”, “24” for “6”, “calculated. The ratio of solvents used for each sample is shown in Table 2, and the results obtained by measuring the remaining ratio of everolimus are shown in FIG. 2.” for “calculated.”

Structure (SMILES): CO[C@H]1C[C@@H]2CC[C@@H](C)[C@@](O)(O2)C(=O)C(=O)N2CCCC[C@H]2C(=O)O[C@H]([C@H](C)C[C@@H]2CC[C@@H](OCCO)[C@H](OC)C2)CC(=O)[C@H](C)/C=C(\C)[C@@H](O)[C@@H](OC)C(=O)[C@H](C)C[C@H](C)/C=C/C=C/C=C/1C [everolimus, 40-O-(2-hydroxyethyl)rapamycin]
- remaining ratio of everolimus [1]: less than 96%
- stability of everolimus in mixture (in words) [2]: improved
- purity of everolimus in solution (trend in words) [3]: decreased
